Entries after “also recorded” stand apart in the source; their conditions may differ. Structures can show the parent of a compound that is named as a salt.
How the values were obtained:
MCF-7 SPS cells [1] = assay: LOPAC compounds tested on MCF-7 SPS cells (Table 2); conditions: Compounds that inhibit cancer stem cells, 3 μM stated for Niclosamide
Description: The morphology and number of the spheroids were further analyzed by software image pro plus.

OVCA sps cells = assay: LOPAC compounds tested on OVCA sps cells, MTS / ATP-based assay (Table 3); format: cell-based; conditions: proliferation and differentiation
Experimental: CP70 sps cells were seeded in a 96-well culture plate (1×10^3 cells/well) and cultured for 24 hr, and then treated with 30 μM of various compounds selected from the LOPAC database. Following 3-day treatment, the vitality of the treated cells was measured by CellTiter-Glo® Luminescent Cell Vitality Assay kit (Promega) according to the manufacturer's instructions.
(§1) The vitality of the treated cells was measured by MTS assay using MTS-based CellTiter 96 aqueous non-radioactive cell proliferation assay kit (Promega) according to the manufacturer's instructions.

CP70 sps cells = assay: Cytotoxicity / vitality of CP70 sps cells (MTS assay); conditions: for inhibition / cytotoxicity effect on CP70 sps (OVCA sps) cells: 3 μM, MTS assay
Experimental: as §1
The vitality of the CP70 sps cells was measured by MTS assay. For preclinical test, two groups with five mice each were i.p. injected with 1×10^4 of CP70 sps cells alone or followed by Niclosamide treatment (10 mg/kg/daily) from day 1 to day 47, respectively. The body weights of the two groups of mice were monitored every 3 days during day 36 to day 48. After 48 days, the mice were sacrificed to examine the tumor nodules formation in the abdominal cavity.

[2] = tested on: OVCICs sps cells collected from ovarian cancer patient(s); assay: Patients' OVCA specimen-derived cells (pdOVCICs / OVCICs sps), MTS assay; format: cell-based, human; conditions: in vitro
Experimental: A total of 5000 pdOVCICs were seeded onto each well in 96-well plates and each plate was treated with different concentrations of Niclosamide in duplicates for 3 days. The vitality of pdOVCICs cells was measured by MTS assay.

CP70 cells = assay: Cytotoxicity on CP70 (OVCA) cells
MCF-7 cells = assay: Toxicity of Paclitaxol on MCF-7 cells; format: cell-based
Description: (§2) Next, we compared the toxicity effects of the anti-cancer drug, Paclitaxol, on MCF-7 cells, MCF-7 SPS cells, MDA-MB 231 cells and MDA-MB 231 SPS.

MCF-7 SPS cells [3] = assay: Toxicity of Paclitaxol on MCF-7 sps cells; format: cell-based
Description: as §2

shh = assay: Signaling inhibitors on MCF-7 SPS cells: shh; format: cell-based; conditions: 30 μM, 3 days
Description: Moreover, MCF-7 SPS cells were affected by the expression of Wnt, NOTCH and shh which caused morphological changes. […] Based on the aforementioned experiments, MCF-7 SPS cells contain cancer stem cells that can undergo further differentiation (FIG. 5B).

[4] = Cisplatin treatment, FIGS. 10A-10C

| Compound | Cancer cell survival (%) (MCF-7 SPS cells [1]) | Cancer cell survival (%) (OVCA sps cells) | further results |
| --- | --- | --- | --- |
| Clc1ccc(C(c2ccc(Cl)cc2)n2cc[n+](CC(OCc3ccc(Cl)cc3Cl)c3ccc(Cl)cc3Cl)c2)cc1.[Cl-] (centres unmarked) [Calmidazolium chloride, 1-[bis(4-Chlorophenyl)methyl]-3-[2-(2,4-dichlorophenyl)-2-(2,4-dichlorobenzyloxy)ethyl]-1H-imidazolium chloride] | 3.9 | – | – |
| O=Nc1ccc2oc(=O)ccc2c1 [6-Nitroso-1,2-benzopyrone] | 1.5 | – | – |
| c1ccc2c(c1)[I+]c1ccccc1-2 [Diphenyleneiodonium chloride] | – | 31.37 | – |
| CC(C)(C)[C@]1(O)CCN2Cc3cccc4c3[C@H](c3ccccc3CC4)[C@@H]2C1.Cl [(+)-Butaclamol hydrochloride] | – | 42.81 | inhibition / cytotoxicity effect on CP70 sps (OVCA sps) cells (CP70 sps cells; hydrochloride): can kill; also recorded: significant inhibition effect; inhibition / cytotoxicity effect on CP70 sps (OVCA sps) cells (CP70 sps cells; listed as (+)-butaclamol hydrochloride, hydrochloride): significant inhibition effects; numbers of ovarian cancer stem cells in CP70 SPS cell culture in vitro (CP70 sps cells; FIG. 14 / FIG. 15): inhibited; differentiation and growth of ovarian cancer cells [2]: successfully inhibited; cytotoxicity effect on CP70 (OVCA) cells (CP70 cells; 3 μM, hydrochloride): can kill; also recorded: toxic |
| CCN(CC)C(=S)SSC(=S)N(CC)CC [Tetraethylthiuram disulfide] | 10.18 | – | – |
| CC1=C(/C=C/C(C)=C/C=C/C(C)=C/C(=O)Nc2ccc(O)cc2)C(C)(C)CCC1 [Retinoic acid p-hydroxyanilide] | 13 | – | – |
| CC[C@H]1CN2CCc3cc(OC)c(OC)cc3[C@@H]2C[C@@H]1C[C@H]1NCCc2cc(OC)c(OC)cc21 [Emetine dihydrochloride hydrate] | 7.3 | 49.13 | – |
| COc1ccc2c(c1)/C(=C/c1cnc[nH]1)C(=O)N2 [SU 9516, 3-[1-(3H-Imidazol-4-yl)-meth-(Z)-ylidene]-5-methoxy-1,3-dihydro-indol-2-one] | 10.7 | – | – |
| N.N.[Cl][Pt][Cl] [Cisplatin] | – | – | inhibition of CP70 sps cells (CP70 sps cells; [4]): inhibited; inhibition of CP70 cells (CP70 cells; [4]): inhibited |
| C[n+]1cc2c3c(ccc2c2ccc4cc5c(cc4c21)OCO5)OCO3 [Sanguinarine chloride] | – | 20.37 | – |
| O=C1Nc2cc(Br)ccc2/C1=C1/Nc2ccccc2/C1=N\O [BIO, (2′Z,3′E)-6-Bromoindirubin-3′-oxime] | 2.4 | – | – |
| COc1cc2nc(N3CCN(C(=O)c4ccco4)CC3)nc(N)c2cc1OC [Prazosin hydrochloride] | 1.1 | – | – |
| C[C@@H]1O[C@@H](O[C@H]2C[C@@H](O)[C@]3(CO)[C@H]4[C@H](O)C[C@]5(C)[C@@H](C6=CC(=O)OC6)CC[C@]5(O)[C@@H]4CC[C@]3(O)C2)[C@H](O)[C@H](O)[C@H]1O [Ouabain] | 1.8 | 26.69 | – |
| CCN(CC)CCCC(C)Nc1c2ccc(Cl)cc2nc2ccc(OC)cc12 (centres unmarked) [Quinacrine dihydrochloride] | 3.8 | – | – |
| COc1ccc2c(c[n+](C)c3c4cc5c(cc4ccc23)OCO5)c1OC [Chelerythrine chloride] | 9.9 | – | – |
| CC(=O)c1c(O)c(C)c(O)c(Cc2c(O)c3c(c(C(=O)/C=C/c4ccccc4)c2O)OC(C)(C)C=C3)c1O [Rottlerin] | – | 38.89 | inhibition / cytotoxicity effect on CP70 sps (OVCA sps) cells (CP70 sps cells): significant inhibition effect; also recorded: toxic |
| Brc1c(Br)c(Br)c2[nH]cnc2c1Br [CK2 Inhibitor 2, 4,5,6,7-tetrabromobenzimidazole] | 8.3 | – | – |
| N#Cc1c(-c2ccccc2)no[n+]1[O-] [4-Phenyl-3-furoxancarbonitrile] | 1.1 | – | – |

| Compound | Cancer cell survival (%) (MCF-7 SPS cells [1]) | Cancer cell survival (%) (OVCA sps cells) | further results |
| --- | --- | --- | --- |
| CCn1cnc2c(Nc3cccc(Cl)c3)nc(N[C@@H]3CCCC[C@@H]3N)nc21.Cl (relative stereo) [CGP-74514A hydrochloride, N2-(cis-2-Aminocyclohexyl)-N6-(3-chlorophenyl)-9-ethyl-9H-purine-2,6-diamine hydrochloride] | 10 | – | – |
| CCCCCCCCCCCCCCCC(=O)OC(CC(=O)O)C[N+](C)(C)C.[Cl-] (racemic) [Palmitoyl-DL-Carnitine chloride] | 9.7 | – | – |
| CC(=O)O[C@H]1C(=O)[C@@]2(C)[C@H]([C@H](OC(=O)c3ccccc3)[C@]3(O)C[C@H](OC(=O)[C@H](O)[C@@H](NC(=O)c4ccccc4)c4ccccc4)C(C)=C1C3(C)C)[C@]1(OC(C)=O)CO[C@@H]1C[C@@H]2O [Paclitaxol] | – | – | toxicity effect on MCF-7 cells (MCF-7 cells): notably inhibited; toxicity effect on MCF-7 sps cells (MCF-7 SPS cells [3]): no effect |
| CC1=C2C[C@H]3[C@@H](CC=C4C[C@@H](O)CC[C@@]43C)[C@@H]2CC[C@]12O[C@@H]1C[C@H](C)CN[C@H]1[C@H]2C [cyclopamide] | – | – | expression of shh (shh): inhibited |
| CN1CCN(c2nc3cc(C(F)(F)F)ccc3n3cccc23)CC1.O=C(O)/C=C\C(=O)O [CGS-12066A maleate, 7-Trifluoromethyl-4-(4-methyl-1-piperazinyl)pyrrolo-[1,2-a]quinoxaline maleate salt] | 16.3 | – | – |
| COc1ccc(NC(=O)c2ccc(-c3ccc(-c4noc(C)n4)cc3C)cc2)cc1N1CCN(C)CC1.Cl.O [GR 127935 hydrochloride, N-[4-Methoxy-3-(4-methyl-1-piperazinyl)phenyl]-2′-methyl-4′-(5-methyl-1,2,4-oxadiazol-3-yl)-1,1′-biphenyl-4-carboxamide hydro chloride hydrate] | 2.8 | – | – |
| CC[C@@]1(O)C(=O)OCc2c1cc1n(c2=O)Cc2cc3ccccc3nc2-1 [(S)-(+)-Camptothecin] | 8.2 | 39.11 | – |
| C=CC1=C(C)c2cc3[nH]c(cc4nc(cc5[nH]c(cc1n2)c(C)c5CCC(=O)O)C(CCC(=O)O)=C4C)c(C)c3C=C [Protoporphyrin IX disodium] | 1.8 | 34.75 | – |
| CC1CCCC=CC2CC(O)CC2C(O)C=CC(=O)O1 (centres unmarked) [γ-4-Dihydroxy-2-(6-hydroxy-1-heptenyl)-4-cyclopentanecrotonic acid λ-lactone] | 6.6 | 41.18 | – |
| CNc1ccc2oc(C[C@H]3O[C@@]4(CC[C@H]3C)O[C@H]([C@H](C)C(=O)c3ccc[nH]3)[C@H](C)C[C@H]4C)nc2c1C(=O)O [Calcimycin] | – | 42.70 | – |
| O.c1cnc2c(c1)ccc1cccnc12 [1,10-Phenanthroline monohydrate] | 7 | – | – |
| N.S=C(S)N1CCCC1 [Ammonium pyrrolidinedithiocarbamate] | 4.4 | – | – |
| Vinblastine sulfate salt | – | 64.6 | – |
| C[C@@H]1O[C@@H](O[C@H]2C[C@@H](O)[C@]3(CO)[C@H]4[C@H](O)C[C@]5(C)[C@@H]([C@@H]6COC(=O)C6)CC[C@]5(O)[C@@H]4CC[C@]3(O)C2)[C@H](O)[C@H](O)[C@H]1O [Dihydroouabain] | 9.1 | 45.97 | – |
| O=C1c2c(O)ccc(O)c2C(=O)c2c(NCCNCCO)ccc(NCCNCCO)c21 [Mitoxantrone] | 5.2 | – | – |
| CC1(C)CCC2=C(O1)c1ccccc1C(=O)C2=O [beta-Lapachone, 3,4-Dihydro-2,2-Dimethyl-2H-Naphtho[1,2-B] Pyran-5,6-Dione] | 1.67 | – | – |
| CC(C)(C)c1ccc(S(=O)(=O)/C=C/C#N)cc1 [Bay 11-7085, (E)3-((4-t-Butylphenyl)sulfonyl)-2-propenenitrile] | 4 | – | – |
| Cc1cc(N)c2ccccc2[n+]1CCCCCCCCCC[n+]1c(C)cc(N)c2ccccc21 [Dequalinium dichloride] | – | 54.68 | – |
